Common to all, as to assay: iSPP profiling, P. falciparum lysate
Common to all, as to type: binding, Plasmodium falciparum

For assay [1], the system named is Uncharacterized protein (W7JQ86). Here is the method:
(§1) P. falciparum NF54 lysates were extracted as described in ^[26^] . The parasite asynchronous culture was extracted once 3-5% parasitemia was reached. Saponin lysis was done as described in 2.2.10. Once the parasite pellet was obtained, 2.5 volumes of ice-cold lysis buffer (50 mM Tris/HCl pH 7.5 (Avantor), 5% glycerol (Sigma-Aldrich), 150 mM NaCl (Carl Roth), 1.5 mM MgCl2 (Sigma-Aldrich), 1 mM DTT (Carl Roth), 0.8% IGEPAL CA-630 (Sigma-Aldrich), 1X Halt Protease and Phosphatase Inhibitor-Cocktails EDTA-free (Thermo Fisher Scientific)) was added to the parasite pellet. The lysate solution was subjected to three cycles of flash freeze-thaw with liquid nitrogen and ddH2O at RT. The lysates were centrifuged at 20,000 g for 20 minutes at 4 °C. The soluble protein fraction (supernatant) was collected and the protein content was quantified using the BCA assay (Pierce™ BCA Protein Assay Kit, Thermo Fisher Scientific). The lysate was stored at -80 °C until further use.
(§2) The P. falciparum lysate was thawed on ice and diluted to 0.8 mg/mL. The lysate was aliquoted, and each aliquot was incubated with either a vehicle control (DMSO), 34 (dissolved in DMSO), or varying concentrations of 31 (dissolved in DMSO) at 0.01 µM, 0.1 µM, 10 µM, 50 µM, and 100 µM. Subsequently, the samples were incubated at room temperature for 30 minutes using a rotating mixer. After distribution into a 96-well plate, the samples were treated with increasing concentrations of A.E.A. (v/v) ranging from 14% to 28% (14, 16, 18, 20, 22, 24, 26, and 28%). Following a 20-minute incubation at 37°C with shaking at 750 rpm, the samples were centrifuged at 4400 g for 35 minutes to remove precipitated proteins. The soluble fractions were then pooled in equal volumes into a single sample using the Bravo Automated Liquid Handling Platform. The pooled samples were subsequently prepared for LC-MS/MS analysis.
(§3) The raw LFQ-DIA intensity values of biological replicates across all conditions were normalized to the median abundance using Excel. The normalized values were then log2 transformed in Perseus (v2.0.10.0).^[58^] Missing values were imputed from a normal distribution (width 0.3, down shift 1.5), and p-values were obtained using a two-sample t-test over replicates with a permutation-based false discovery rate correction (FDR 0.05). Volcano plots were generated in RStudio using the EnhancedVolcano package (v. 1.20.0), ^[59^] plotting proteins by statistical significance (y-axis: –Log10 p-value) versus the magnitude of change (x-axis: log2 fold change of protein intensities for each compound condition relative to the vehicle control). The heatmap was generated in Perseus (v2.0.10.0). Dose-dependent curves were generated using normalized protein intensity values, expressed as a ratio to the vehicle control. Plots were created in GraphPad Prism (v8.3.0) using a nonlinear regression model.

Assay [2] relates to Pre-mRNA-splicing factor BUD31 (W7K941). The note with it: 100 µM compound 34. Here is the method:
as §1, §2, §3

The subject of assay [3] is Protein RFT1 homolog (W7JM37). To be noted: 100 µM compound 34. How it is done:
as §1, §2, §3

Assay [4] relates to Antigen UB05 (W7JRY1). To be noted: 100 µM compound 34. Here is the method: as §1, §2, §3
The subject of assay [5] is Dihydrolipoyl dehydrogenase (W7JVD0). To be noted: 100 µM compound 34. How it is done: as §1, §2, §3
For assay [6], the system named is DNA repair and recombination protein RAD54 (W7K6H8). To be noted: 100 µM compound 34. Here is the method:
as §1, §2, §3

The subject of assay [7] is Uncharacterized protein (W7JZL0). To be noted: 100 µM compound 34. How it is done:
as §1, §2, §3

Assay [8] concerns Pre-mRNA branch site protein p14 (Fragment) (W7JRR7). To be noted: 100 µM compound 34. Here is the method: as §1, §2, §3
For assay [9], the system named is Uncharacterized protein (W7KBT1). To be noted: 100 µM compound 34. Here is the method:
as §1, §2, §3

Assay [10] has as its system Uncharacterized protein (W7KDE4). The note with it: 100 µM compound 34. Here is the method:
as §1, §2, §3

The subject of assay [11] is RRM domain-containing protein (W7KAG3). To be noted: 100 µM compound 34. Here is the method:
as §1, §2, §3

The subject of assay [12] is Uncharacterized protein (W7KAL3). To be noted: 100 µM compound 34. How it is done:
as §1, §2, §3

For assay [13], the system named is Ubiquitin-like protein nedd8-like (W7JPX7). The note with it: 100 µM compound 34. How it is done: as §1, §2, §3
Assay [14] relates to Sugar phosphate phosphatase (W7K268). To be noted: 100 µM compound 34. How it is done: as §1, §2, §3
Assay [15] concerns Uncharacterized protein (W7KAK7). The note with it: 100 µM compound 34. Here is the method:
as §1, §2, §3

Assay [16] deals with Uncharacterized protein (W7KMZ2). To be noted: 100 µM compound 34. How it is done:
as §1, §2, §3

Assay [17] deals with Dual specificity protein phosphatase (W7KAW5). To be noted: 100 µM compound 34. How it is done:
as §1, §2, §3

The subject of assay [18] is Uncharacterized protein (W7KFE6). The note with it: 100 µM compound 34. How it is done:
as §1, §2, §3

In assay [19] the test system is Ribosome associated membrane protein RAMP4 (W7KMX9). To be noted: 100 µM compound 34. Here is the method: as §1, §2, §3
For assay [20], the system named is Small nuclear ribonucleoprotein Sm D1 (W7K576). The note with it: 100 µM compound 34. Here is the method:
as §1, §2, §3

For assay [21], the system named is Uncharacterized protein (W7JSC9). The note with it: 100 µM compound 34. How it is done: as §1, §2, §3
The subject of assay [22] is 2-C-methyl-D-erythritol 4-phosphate cytidylyltransferase (W7KNE8). The note with it: 100 µM compound 34. Here is the method:
as §1, §2, §3

For assay [23], the system named is Erythrocyte membrane protein 1 (W7JQ66;W7K7Z8;W7KA08;W7KI56;W7KJ57). The note with it: 100 µM compound 34. Here is the method:
as §1, §2, §3

Assay [24] has as its system PCI domain-containing protein (W7JUC8). To be noted: 100 µM compound 34. How it is done:
as §1, §2, §3

In assay [25] the test system is SPATR (W7KAV2). The note with it: 100 µM compound 34. Here is the method:
as §1, §2, §3

The subject of assay [26] is Uncharacterized protein (W7K0G9). To be noted: 100 µM compound 34. How it is done: as §1, §2, §3

On to `CN1CCN(Cc2ccc(O)c(NC(=O)c3cccc(Oc4cc(C(F)(F)F)ccn4)c3)c2)CC1` [Compound 31, N-(2-hydroxy-5-((4-methylpiperazin-1-yl)methyl)phenyl)-3-((4-(trifluoromethyl)pyridin-2-yl)oxy)benzamide], for which the log2FC in assay [1] (10 µM) stood at 0.49; in assay [1] (50 µM) it was 0.58; in [1] (100 µM), 0.37; in [1] (10^-2 µM), 0.40; in assay [1] (10^-3 µM), 0.28.

With `O=C(Nc1cc(CN2CCOCC2)ccc1F)c1cccc(Oc2cc(C(F)(F)F)ccn2)c1` [Compound 34, N-(2-Fluoro-5-(morpholinomethyl)phenyl)-3-((4-(trifluoromethyl)pyridin-2-yl)oxy)benzamide], the log2FC in [2] is reported as 0.5199; in assay [3] it was -0.6689; in assay [4] it was 0.5651; in assay [5], 0.3119; in [6] it was -0.7564; in [7], -1.173. For the same compound, the log2FC in [8] was 0.3601; in assay [9], 0.318; in assay [10], 0.5097; in [11], 0.4449; in assay [12], -0.4853; in assay [13], 0.3658. Further, the log2FC in assay [14] is on record as -0.3813; in assay [15], -0.4093; in assay [16] it was 0.3762; in [17] it was -0.5678; in assay [18], 0.3535; in assay [19], 0.4453. In addition, the log2FC in assay [20] is 0.401; in [21], 0.457; in [22], -1.336; in assay [23], 0.3804; in assay [24] it was -0.3885; in assay [25] it was 0.3835. The log2FC in assay [26] is -0.3881.

Values taken from paper PMC12668308, “A Novel Antimalarial Agent that Inhibits Protein Synthesis in Plasmodium falciparum” (Angewandte Chemie (International Ed. in English), 2025).
